{"source": "patent US20250129385A1", "about": "“GENE-EDITING METHODS FOR EMBRYONIC STEM CELLS” (ABS Global, Inc., priority 2022, published 2025)", "assay_type_in_all_cases": "cell-based", "key": {"ROSA safe harbor locus": {"tested_on": "ROSA safe harbor locus", "assay": "CRISPR-Cas9 RNP gene editing of bovine ESC, indels by Sanger sequencing/TIDE, ROSA locus", "settings": "gbESC_H2682 cells; RNP 20 pmol SpCas9 + 60 pmol sgRNA, program CM138; DNA after four days; TIDE", "experimental": "(§1) Test edits were performed in the ROSA and CD18 loci. CRISPR guides targeting the CD18 (ITGB2) gene at chr1:144,776,517, or the ROSA safe harbor locus region chr22:17,210,883-17,210,982, (genome assembly ARS-UCD1.2/bosTau9) were designed and synthesized as sgRNA molecules (IDT, Coralville IA) as shown in Table 2.\n(§2) Ribonucleoprotein complexes formed from 20 pmol SpCas9 (IDT, Coralville IA) and 60 pmol sgRNA were electroporated into gbESC_H2682 cells using P3 nucleofection solution and the Amaxa 4D program CM138. After four days DNA from the cells was harvested using QUICKEXTRACT™ reagent (Lucigen, Middleton WI), and PCR was performed using the primers in Table 3."}, "CD18 (ITGB2) gene": {"tested_on": "CD18 (ITGB2) gene", "assay": "CRISPR-Cas9 RNP gene editing of bovine ESC, indels by Sanger sequencing/TIDE, CD18 locus", "settings": "gbESC_H2682 cells; RNP 20 pmol SpCas9 + 60 pmol sgRNA, program CM138; DNA after four days; TIDE", "experimental": "as §1, §2"}, "[1]": {"tested_on": "Porcine stem cell line C2", "assay": "Single passage cell growth in media #2 with additives (CELLTITER-GLO 2.0)", "settings": "simple defined media #2 plus additive, day five; for Cell Growth (% of simple media): line C2 passaged 1:80, laminin 521, changed daily", "experimental": "A revised simple defined media #2 (Table 6, with lower ascorbic acid and FGF2) was used to determine any immediate benefit of certain additives over the timeframe of one passage.\nPorcine stem cell line C2 (see Example 2) growing in the standard TI media conditions was passaged at a 1:80 ratio into a laminin 521 coated 24 well plate containing simple defined media #2 alone or with the addition of 1% bovine serum albumin, 1% Albumax, 1 mg/mL polyvinyl acetate, 1:500 chemically defined lipids (Gibco), 1:500 lipid mixture solution (Peprotech), 1:1000 Trace Elements B or C (Corning), sodium bicarbonate, and double the amount of ITS (insulin/transferrin/selenium). Cells were incubated at 38.5° C./5% 02 and media and additives were changed daily. On day five cell growth was measured using the CELLTITER-GLO® 2.0 kit (Promega, Madison WI)."}, "seventh exon of CD163": {"tested_on": "seventh exon of CD163", "assay": "CRISPR-CAS9 editing of porcine ESC, single-cell clones screened by PCR genotyping", "settings": "two guides together, C9 line; RNP 20 pmol SpCas9 + 60 pmol sgRNA, pulse DS137; colonies screened at day 21", "source_text": "As proof of concept, the present inventors sought to create the CD163 edit disclosed in U.S. Pat. No. 11,535,850. Two guides, ctggcttact cctatcatga agg (SEQ ID NO: 103) and tcccatgcca tgaagagggt agg (SEQ ID NO: 104) were used to excise the seventh exon of CD163. These guides were electroporated into the C9 line by mixing cells in P3 nucleofection solution with ribonucleoprotein (20 pmol SpCas9 complexed with 60 pmol of the guide sgRNA) and using the pulse condition DS137 in a 4D-Nucleofector system (Lonza, Walkersville MD). Between day 7 and 12 post-electroporation, single cells were deposited one per well into a 96 well plate (coated with laminin 521 and containing TI media with Y27632) using a Hana Single Cell Dispenser instrument (Namocell, San Jose CA). Cells were allowed to grow until day 21, and then colonies were screened by PCR genotyping (see 11,535,850)."}}, "data": [{"molecule": "748: sgRNA, guide sequence TGTCGAGTCTCGATTATGGG, targeting bovine ROSA safe harbor locus (listed as DNA, chemistry not given here; listed as Bos taurus) [compound 748]", "values": [{"measurement": "Efficiency (%) (editing frequency)", "setting": "ROSA safe harbor locus", "result": 74.3, "unit": "%"}]}, {"molecule": "749: sgRNA, guide sequence ATAATCGAGACTCGACATGG, targeting bovine ROSA safe harbor locus (listed as DNA, chemistry not given here; listed as Bos taurus) [compound 749]", "values": [{"measurement": "Efficiency (%) (editing frequency)", "setting": "ROSA safe harbor locus", "result": 66.5, "unit": "%"}]}, {"molecule": "750: sgRNA, guide sequence AGGCGATGACGAGATCGCGG, targeting bovine ROSA safe harbor locus (listed as DNA, chemistry not given here; listed as Bos taurus) [compound 750]", "values": [{"measurement": "Efficiency (%) (editing frequency)", "setting": "ROSA safe harbor locus", "result": 58.2, "unit": "%"}]}, {"molecule": "754: sgRNA, guide sequence CCCCGTGGGACTCACCGGAC, targeting bovine CD18 (ITGB2) gene (listed as DNA, chemistry not given here; listed as Bos taurus) [compound 754]", "values": [{"measurement": "Efficiency (%) (editing frequency)", "setting": "CD18 (ITGB2) gene", "result": 34.9, "unit": "%"}]}, {"molecule": "O=C([O-])O.[Na+]", "note": "[Sodium bicarbonate]", "values": [{"measurement": "Cell Growth (% of simple media)", "setting": "[1]", "result": 75, "unit": "%"}]}, {"molecule": "+ 1% BSA (Gibco A10008-01): 1% bovine serum albumin added to simple defined media #2", "values": [{"measurement": "effect on cell growth in words", "setting": "[1]; line C2", "result": "beneficial to cell growth"}, {"measurement": "Cell Growth (% of simple media)", "setting": "[1]", "result": 187, "unit": "%"}]}, {"molecule": "SEQ ID NO: 103: guide ctggcttact cctatcatga agg used to excise the seventh exon of CD163 (guide CTGGCTTACTCCTATCATGAAGG; listed as DNA, chemistry not given here; listed as Sus scrofa)", "values": [{"measurement": "clones homozygous for the CD163 edit", "setting": "seventh exon of CD163", "result": "Two clones that were homozygous for the edit were found"}]}, {"molecule": "SEQ ID NO: 104: guide tcccatgcca tgaagagggt agg used to excise the seventh exon of CD163 (guide TCCCATGCCATGAAGAGGGTAGG; listed as DNA, chemistry not given here; listed as Sus scrofa)", "values": [{"measurement": "clones homozygous for the CD163 edit", "setting": "seventh exon of CD163", "result": "Two clones that were homozygous for the edit were found"}]}]}
